In ChEMBL document CHEMBL4177646, “Discovery of novel nitroimidazole enols as Pseudomonas aeruginosa DNA cleavage agents” (Bioorg Med Chem, 2017):
Values after ≈ are worked out from the molar mass of the structure shown.

Key:
Type in all cases: functional
Candida albicans [1] = experiment: Antifungal activity against drug-resistant Candida albicans after 24 hrs by micro broth dilution method
Candida albicans [2] = experiment: Antifungal activity against Candida albicans ATCC 90023 after 24 hrs by micro broth dilution method; settings: ATCC 90023, 24 h
Candida tropicalis = experiment: Antifungal activity against Candida tropicalis after 24 hrs by micro broth dilution method
Staphylococcus aureus [3] = experiment: Antibacterial activity against methicillin-resistant Staphylococcus aureus N315 after 24 hrs by micro broth dilution method; settings: N315, 24 h
Staphylococcus aureus [4] = experiment: Antibacterial activity against drug-resistant Staphylococcus aureus after 24 hrs by micro broth dilution method
Staphylococcus aureus [5] = experiment: Antibacterial activity against Staphylococcus aureus ATCC 25923 after 24 hrs by micro broth dilution method; settings: ATCC 25923, 24 h
Staphylococcus aureus [6] = experiment: Antibacterial activity against Staphylococcus aureus ATCC 29213 after 24 hrs by micro broth dilution method; settings: ATCC 29213, 24 h
Escherichia coli [7] = experiment: Antibacterial activity against drug-resistant Escherichia coli after 24 hrs by micro broth dilution method
Escherichia coli [8] = experiment: Antibacterial activity against Escherichia coli ATCC 25922 after 24 hrs by micro broth dilution method; settings: ATCC 25922, 24 h
Pseudomonas aeruginosa [9] = experiment: Antibacterial activity against drug-resistant Pseudomonas aeruginosa after 24 hrs by micro broth dilution method
Pseudomonas aeruginosa [10] = experiment: Antibacterial activity against Pseudomonas aeruginosa ATCC 27853 after 24 hrs by micro broth dilution method; settings: ATCC 27853, 24 h

Row | SMILES | MIC (Candida albicans [1]) [µg/mL] | MIC (Candida albicans [2]) [µg/mL] | MIC (Candida tropicalis) [µg/mL] | MIC (Staphylococcus aureus [3]) [µM] | MIC (Staphylococcus aureus [4]) [µM] | MIC (Staphylococcus aureus [5]) [µM] | MIC (Staphylococcus aureus [6]) [µM] | MIC (Escherichia coli [7]) [µM] | MIC (Escherichia coli [8]) [µM] | MIC (Pseudomonas aeruginosa [9]) [µM] | MIC (Pseudomonas aeruginosa [10]) [µM]
1 | OC(Cn1cncn1)(Cn1cncn1)c1ccc(F)cc1F [FLUCONAZOLE] | 8 (≈ 26.1 µM) | 8 (≈ 26.1 µM) | 256 (≈ 836 µM) | – | – | – | – | – | – | – | –
2 | Cc1ncc([N+](=O)[O-])n1/C(=C/c1ccc(Cl)cc1)C(C)O (centres undefined) | 512 (≈ 1660 µM) | 16 (≈ 52 µM) | 256 (≈ 832 µM) | 1670 (≈ 514 µg/mL) | 830 (≈ 255 µg/mL) | 1670 (≈ 514 µg/mL) | 830 (≈ 255 µg/mL) | 1670 (≈ 514 µg/mL) | 1670 (≈ 514 µg/mL) | 1670 (≈ 514 µg/mL) | 410 (≈ 126 µg/mL)
3 | CC(=O)/C(=C\c1ccccc1Cl)n1c([N+](=O)[O-])cnc1C | 512 (≈ 1670 µM) | 32 (≈ 105 µM) | 64 (≈ 209 µM) | 1640 (≈ 501 µg/mL) | 1640 (≈ 501 µg/mL) | 820 (≈ 251 µg/mL) | 820 (≈ 251 µg/mL) | 1640 (≈ 501 µg/mL) | 410 (≈ 125 µg/mL) | 830 (≈ 254 µg/mL) | 830 (≈ 254 µg/mL)
4 | Cc1ncc([N+](=O)[O-])n1CCO [METRONIDAZOLE] | – | – | – | 2970 (≈ 508 µg/mL) | 2970 (≈ 508 µg/mL) | 2970 (≈ 508 µg/mL) | 2970 (≈ 508 µg/mL) | 2970 (≈ 508 µg/mL) | 2970 (≈ 508 µg/mL) | 2970 (≈ 508 µg/mL) | 2970 (≈ 508 µg/mL)
5 | CC(=O)/C(=C\c1ccc(Cl)cc1Cl)n1c([N+](=O)[O-])cnc1C | 512 (≈ 1510 µM) | 128 (≈ 376 µM) | 512 (≈ 1510 µM) | 1650 (≈ 561 µg/mL) | 1650 (≈ 561 µg/mL) | 830 (≈ 282 µg/mL) | 1650 (≈ 561 µg/mL) | 1650 (≈ 561 µg/mL) | 1650 (≈ 561 µg/mL) | 1650 (≈ 561 µg/mL) | 830 (≈ 282 µg/mL)
6 | Cc1ncc([N+](=O)[O-])n1/C(=C/c1ccc(C#N)cc1)C(C)O (centres undefined) | 512 (≈ 1720 µM) | 64 (≈ 215 µM) | 512 (≈ 1720 µM) | 1710 (≈ 510 µg/mL) | 1710 (≈ 510 µg/mL) | 1710 (≈ 510 µg/mL) | 1710 (≈ 510 µg/mL) | 1710 (≈ 510 µg/mL) | 860 (≈ 257 µg/mL) | 1710 (≈ 510 µg/mL) | 860 (≈ 257 µg/mL)
7 | Cc1ncc([N+](=O)[O-])n1/C(=C/c1ccccc1Cl)C(C)O (centres undefined) | 512 (≈ 1660 µM) | 32 (≈ 104 µM) | 512 (≈ 1660 µM) | 1670 (≈ 514 µg/mL) | 1670 (≈ 514 µg/mL) | 1670 (≈ 514 µg/mL) | 1670 (≈ 514 µg/mL) | 1670 (≈ 514 µg/mL) | 210 (≈ 64.6 µg/mL) | 1670 (≈ 514 µg/mL) | 830 (≈ 255 µg/mL)
8 | CCn1c2ccccc2c2cc(/C=C(\C(C)O)n3c([N+](=O)[O-])cnc3C)ccc21 (centres undefined) | 512 (≈ 1310 µM) | 512 (≈ 1310 µM) | 256 (≈ 656 µM) | 1310 (≈ 511 µg/mL) | 1310 (≈ 511 µg/mL) | 1310 (≈ 511 µg/mL) | 660 (≈ 258 µg/mL) | 1310 (≈ 511 µg/mL) | 1310 (≈ 511 µg/mL) | 1310 (≈ 511 µg/mL) | 1310 (≈ 511 µg/mL)
9 | CCn1cc(C(=O)O)c(=O)c2cc(F)c(N3CCNCC3)cc21 [NORFLOXACIN] | – | – | – | 1600 (≈ 511 µg/mL) | 200 (≈ 63.9 µg/mL) | 100 (≈ 31.9 µg/mL) | 25 (≈ 7.98 µg/mL) | 1600 (≈ 511 µg/mL) | 50 (≈ 16 µg/mL) | 1600 (≈ 511 µg/mL) | 1600 (≈ 511 µg/mL)
10 | CC(=O)/C(=C\c1ccc(C#N)cc1)n1c([N+](=O)[O-])cnc1C | 256 (≈ 864 µM) | 128 (≈ 432 µM) | 256 (≈ 864 µM) | 1720 (≈ 510 µg/mL) | 1720 (≈ 510 µg/mL) | 860 (≈ 255 µg/mL) | 860 (≈ 255 µg/mL) | 1720 (≈ 510 µg/mL) | 860 (≈ 255 µg/mL) | 430 (≈ 127 µg/mL) | 860 (≈ 255 µg/mL)
11 | CC(=O)/C(=C\c1ccc(Cl)cc1)n1c([N+](=O)[O-])cnc1C | 512 (≈ 1670 µM) | 128 (≈ 419 µM) | 128 (≈ 419 µM) | 1640 (≈ 501 µg/mL) | 210 (≈ 64.2 µg/mL) | 1640 (≈ 501 µg/mL) | 1640 (≈ 501 µg/mL) | 1640 (≈ 501 µg/mL) | 410 (≈ 125 µg/mL) | 1640 (≈ 501 µg/mL) | 820 (≈ 251 µg/mL)
12 | Cc1ncc([N+](=O)[O-])n1/C(=C/c1ccc(Cl)cc1Cl)C(C)O (centres undefined) | 512 (≈ 1500 µM) | 64 (≈ 187 µM) | 256 (≈ 748 µM) | 1500 (≈ 513 µg/mL) | 1500 (≈ 513 µg/mL) | 1500 (≈ 513 µg/mL) | 1500 (≈ 513 µg/mL) | 1500 (≈ 513 µg/mL) | 1500 (≈ 513 µg/mL) | 1500 (≈ 513 µg/mL) | 750 (≈ 257 µg/mL)
13 | CCn1c2ccccc2c2cc(/C=C(\C(C)=O)n3c([N+](=O)[O-])cnc3C)ccc21 | 512 (≈ 1320 µM) | 256 (≈ 659 µM) | 256 (≈ 659 µM) | 1640 (≈ 637 µg/mL) | 820 (≈ 319 µg/mL) | 820 (≈ 319 µg/mL) | 1640 (≈ 637 µg/mL) | 1640 (≈ 637 µg/mL) | 1640 (≈ 637 µg/mL) | 1640 (≈ 637 µg/mL) | 1640 (≈ 637 µg/mL)
